{"source": "paper PMC6891289", "about": "(Molecules, 2019)", "key": {"[1]": {"target": "T1, acetylcholinesterase from Electrophorus electricus (electric eel) (type VI-S) (Electrophorus electricus, UniProt O42275)", "T1 construct": "gene ache; commercial native enzyme from Sigma, type VI-S lyophilized powder", "T1 sequence (O42275 24-633)": "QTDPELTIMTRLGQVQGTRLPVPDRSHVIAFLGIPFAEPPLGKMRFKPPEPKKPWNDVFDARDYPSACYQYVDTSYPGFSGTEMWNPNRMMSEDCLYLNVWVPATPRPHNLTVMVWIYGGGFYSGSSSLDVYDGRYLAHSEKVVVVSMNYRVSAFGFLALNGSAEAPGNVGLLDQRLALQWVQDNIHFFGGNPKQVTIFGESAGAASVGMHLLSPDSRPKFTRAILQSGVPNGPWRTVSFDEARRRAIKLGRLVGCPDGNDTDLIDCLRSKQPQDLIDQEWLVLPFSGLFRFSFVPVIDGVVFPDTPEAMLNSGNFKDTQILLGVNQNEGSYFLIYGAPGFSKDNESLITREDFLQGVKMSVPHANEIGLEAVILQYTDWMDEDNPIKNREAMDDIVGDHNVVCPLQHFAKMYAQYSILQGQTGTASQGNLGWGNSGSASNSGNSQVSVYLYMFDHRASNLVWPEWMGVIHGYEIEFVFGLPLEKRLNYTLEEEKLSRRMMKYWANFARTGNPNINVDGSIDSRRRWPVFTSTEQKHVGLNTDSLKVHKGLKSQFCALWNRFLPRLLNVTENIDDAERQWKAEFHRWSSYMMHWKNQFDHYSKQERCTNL", "experiment": "Ellman assay, […] nm, Michaelis-Menten fit", "assay_type": "biochemical", "conditions": "no inhibitor, 0.1 to 1.6 mM substrate, phosphate buffer pH 8, 37 °C"}, "[2]": {"target": "T1, acetylcholinesterase from Electrophorus electricus (electric eel) (type VI-S)", "experiment": "Ellman assay, […] nm, 4PL fit", "assay_type": "biochemical"}, "[3]": {"conditions": "read-out: no inhibition up to 50 μg/mL"}}, "note": "Where two headings read alike, the source gives them in different places.", "data": [{"molecule": "CC(=O)SCC[N+](C)(C)C", "note": "[Acetylthiocholine chloride]", "values": [{"measurement": "Km", "setting": "[1]", "value": 330, "unit": "µM"}]}, {"molecule": "COc1ccc2cc3[n+](cc2c1OC)CCc1cc2c(cc1-3)OCO2", "note": "[berberine]", "values": [{"measurement": "IC50", "setting": "[2]; read-out: IC50", "value": 2.8, "unit": "µM"}]}, {"molecule": "COc1cc(/C=C/C(=O)O)ccc1O", "note": "[ferulic acid]", "values": [{"measurement": "IC50", "setting": "[2]; [3]", "value": "> 257", "unit": "µM"}]}, {"molecule": "O=C(O)c1cc(O)c(O)c(O)c1", "note": "[gallic acid]", "values": [{"measurement": "IC50", "setting": "[2]; read-out: IC50", "value": 46.4, "unit": "µM"}]}, {"molecule": "COc1cc(C(=O)O)ccc1O", "note": "[vanillic acid]", "values": [{"measurement": "IC50", "setting": "[2]; [3]", "value": "> 297", "unit": "µM"}]}]}
